Data: patent US20240139176A1, “METHODS OF TREATING OR PREVENTING CACHEXIA” (Toray Industries, Inc., priority 2019, published 2024)
Structures can show the parent of a compound that is named as a salt.

How the values were obtained:
[1] = test system: tumor-bearing mouse model (non-small cell lung cancer model having ghrelin resistance), A549 cells planted into nude mice; test: Food intake and body weight in tumor-bearing mouse model (non-small cell lung cancer model having ghrelin resistance), dosing from Day 43 after A549 plantation; type: in vivo; conditions: oral daily for 28 days (Day 43 to Day 70), Compound 1 0.25 mg/kg, anamorelin hydrochloride 30 mg/kg, combined 0.25 + 30 mg/kg, Dunnett's test P<0.05; for cumulative food intake in the period of administration, compared to distilled water-treated group: FIG. 1; for body weight after 28-day administration, compared to distilled water-treated group: FIG. 2
Protocol: Using tumor-bearing model animals where human alveolar basement epidermal gland cancer cells, A549 cells, were planted into nude mice, examination was performed about drug efficacy on the food intake and the body weight when Compound 1 and anamorelin hydrochloride (MedChemExpress LLC) were combined.
(§1) Subculture of A549 cells was performed using a 10% FBS-containing RPMI1640 culture medium. In evaluation of drug efficacy, 7-week old female BALB/C slc/nu/nu mice (Japan SLC, Inc.) were purchased, and used after habituated for one week. Tumor-bearing model animals were prepared as follows. Specifically, 2.5×10^7 cells of A549 cells were planted to the right abdominal of each mouse by subdermal administration. On Day 41 from the cell plantation, the mice were divided into groups to have an equal averaged tumor volume.
The effects of a variety of compounds on food intake and body weight were examined as follows. Specifically, for 28 days from Day 43 to Day 70 from the cell plantation, the compounds were orally administered daily, and the food intake and the body weight were measured at the same time. For the doses of the compounds, the dose of Compound 1 was 0.25 mg/kg (9 examples), and that of anamorelin hydrochloride was 30 mg/kg (9 examples). In combined administration of Compound 1 and anamorelin hydrochloride, 0.25 mg/kg of Compound 1 and 30 mg/kg of anamorelin hydrochloride were used, where Compound 1 and anamorelin hydrochloride preliminarily dissolved in distilled water mixed for preparation (9 examples). As a control, distilled water was administered in the same manner (9 examples). The food intake was calculated by subtracting the weight of the lid of each single cage containing food on the previous day from the weight of the lid of the single cage containing food on the day of measurement.
In FIG. 1, the ordinate represents the cumulative food intake in the period of administration of the compounds (from the start of administration to the day next to the final day of administration). In FIG. 2, the ordinate represents the body weight on Day 29 from the start of administration of the compounds (the day next to the final day of administration) (after 28-day administration). In the abscissas of FIGS. 1 and 2, “Distilled water” represents distilled water-treated group, “Compound 1” represents Compound 1-treated group, “Anamorelin” represents anamorelin hydrochloride-treated group, and “Combined administration” represents Compound 1 and anamorelin hydrochloride-combined treatment group. In FIGS. 1 and 2, the mark “*” represents a statistical significance (*: P<0.05) compared to distilled water-treated group (Dunnett's multiple test).

[2] = test system: tumor-bearing mouse model (non-small cell lung cancer model), A549 cells planted to nude mice; test: Food intake and body weight in tumor-bearing mouse model (non-small cell lung cancer model), dosing from Day 23 after A549 plantation; type: in vivo; conditions: oral daily for 28 days (Day 23 to Day 50), Compound 1 0.25 mg/kg, anamorelin hydrochloride 30 mg/kg, combined 0.25 + 30 mg/kg, Dunnett's test P<0.05; for cumulative food intake in the period of administration, compared to distilled water-treated group: FIG. 3; for body weight after 28-day administration, compared to distilled water-treated group: FIG. 4
Protocol: Using tumor-bearing model animals where human alveolar basement epidermal gland cancer cells, A549 cells, were planted to nude mice, examination was performed about the drug efficacy on the food intake and body weight when Compound 1 and anamorelin hydrochloride were combined.
as §1, with “Cancer-bearing” for “Tumor-bearing”, “22” for “41”
The effects of a variety of compounds on food intake and body weight were examined as follows. Specifically, for 28 days from Day 23 to Day 50 from the cell plantation, the compounds were orally administered daily, and the food intake and the body weight measured at the same time. For the doses of the compounds, the dose of Compound 1 was 0.25 mg/kg (13 examples), and the dose of anamorelin hydrochloride was 30 mg/kg (13 examples). In combined administration of Compound 1 and anamorelin hydrochloride, 0.25 mg/kg of Compound 1 and 30 mg/kg of anamorelin hydrochloride were used, where Compound 1 and anamorelin hydrochloride preliminarily dissolved in distilled water were mixed for preparation (13 examples). As a control, distilled water was administered in the same manner (13 examples). The food intake was calculated by subtracting the weight of the lid of each single cage containing food on the previous day from the weight of the lid of the single cage containing food on the day of measurement.
In FIG. 3, the ordinate represents the cumulative food intake in the period of administration of the compounds (from the start of administration to the day next to the final day of administration). In FIG. 4, the ordinate represents the body weight on Day 29 from the start of administration of the compounds (the day next to the final day of administration) (after 28-day administration). In the abscissas of FIGS. 3 and 4, “Distilled water” represents distilled water-treated group, “Compound 1” represents Compound 1-treated group, “Anamorelin” represents anamorelin hydrochloride-treated group, and “Combined administration” represents Compound 1 and anamorelin hydrochloride combined-treatment group. In FIGS. 3 and 4, the mark “*” represents a statistical significance (*: P<0.05) compared to distilled water-treated group (Dunnett's multiple test).

[3] = test system: tumor-bearing mouse model (skin cancer model), B16/F10 cells planted to mice; test: Food intake and body weight in tumor-bearing mouse model (skin cancer model), B16/F10 cells; type: in vivo; conditions: oral daily for 11 days (Day 5 to Day 15), Compound 1 0.05 mg/kg, anamorelin hydrochloride 30 mg/kg, combined 0.05 + 30 mg/kg; for cumulative food intake in the period of administration, compared to distilled water-treated group: Dunnett's test P<0.05, FIG. 5; for body weight after 11-day administration, compared to distilled water-treated group: FIG. 6
Protocol: Using tumor-bearing model animals where mouse malignant melanoma cells, B16/F10 cells, were planted to mice, and examination performed about the drug efficacy to the food intake and the body weight when Compound 1 and anamorelin hydrochloride were combined.
Subculture of B16/F10 cells was performed using a DMEM culture medium containing 10% FBS and penicillin-streptomycin. In evaluation of the drug efficacy, 6-weeks old female C57BL/6J mice (Charles River Laboratories, Japan, Inc.) when introduced were used after habituated for one week. The tumor-bearing model animals were prepared as follows. Specifically, 5×10^6 cells of B16/F10 cells were planted to the right abdominal of each mouse by subdermal administration. On Day 5 from the cell plantation, the mice were divided into groups to have an equal averaged tumor volume.
The effects of a variety of compounds on food intake and body weight were examined as follows. Specifically, for 11 days from Day 5 to Day 15 from the cell plantation, the compounds were orally administered daily, and the food intake and the body weight measured at the same time. For the doses of the compounds, the dose of Compound 1 was 0.05 mg/kg (8 examples), and that of anamorelin hydrochloride was 30 mg/kg (8 examples). In combined administration of Compound 1 and anamorelin hydrochloride, 0.05 mg/kg of Compound 1 and 30 mg/kg of anamorelin hydrochloride were used, where Compound 1 and anamorelin hydrochloride preliminarily dissolved in distilled water were mixed for preparation (8 examples). As a control, distilled water was administered in the same manner (8 examples). The food intake was calculated by subtracting the weight of the lid of each single cage containing food on the previous day from the weight of the lid of the single cage containing food on the day of measurement. Eight individuals of each group were divided into two cases, in each of which 4 individuals were raised. The food intake per one mouse was calculated by dividing the total food intake of the 2 cases by 8.
In FIG. 5, the ordinate represents the cumulative food intake in the period of administration of the compounds (from the start of administration to the day next to the final day of administration). In FIG. 6, the ordinate represents the body weight on Day 12 from the start of administration of the compounds (the day next to the final day of administration) (after 11-day administration). In the abscissas in FIGS. 5 and 6, “Distilled water” represents distilled water-treated group, “Compound 1” represents Compound 1-treated group, “Anamorelin” represents anamorelin hydrochloride-treated group, and “Combined administration” represents Compound 1 and anamorelin hydrochloride-combined treatment group. […]

[4] = third phase clinical trials; cited from earlier work

Row | Compound | cumulative food intake in the period of administration, compared to distilled water-treated group [1] | body weight after 28-day administration, compared to distilled water-treated group [1] | cumulative food intake in the period of administration, compared to distilled water-treated group [2] | body weight after 28-day administration, compared to distilled water-treated group [2] | cumulative food intake in the period of administration, compared to distilled water-treated group [3] | body weight after 11-day administration, compared to distilled water-treated group [3] | lean body mass [4]
1 | CN(C)N(C)C(=O)[C@@]1(Cc2ccccc2)CCCN(C(=O)[C@@H](Cc2c[nH]c3ccccc23)NC(=O)C(C)(C)N)C1 [anamorelin hydrochloride, 2-amino-N-[(1R)-2-[(3R)-3-benzyl-3-(N,N′,N′-trimethylhydrazinocarbonyl)piperidin-1-yl-]-1-(1H-indol-3-ylmethyl)-2-oxoethyl]-2-methylpropionamide] | any statistically significant increase of food intake was not observed | any statistically significant increase in body weight was not observed | a tendency of increasing food intake was observed | statistically significant increase of body weight was exhibited | any statistically significant increase food intake was not observed | a tendency of increasing body weight was not exhibited | significantly increases lean body mass
2 | CN(C(=O)/C=C/c1ccoc1)[C@@H]1CC[C@@]2(O)[C@H]3Cc4ccc(O)c5c4[C@@]2(CCN3CC2CC2)[C@H]1O5 [Compound 1, (−)-17-(cyclopropylmethyl)-3,14β-dihydroxy-4,5α-epoxy-6β-[N-methyl-trans-3-(3-furyl)acrylamide]morphinanhydrochloride] | any statistically significant increase of food intake was not observed | any statistically significant increase in body weight was not observed | statistically significant increase of food intake was exhibited | statistically significant increase of body weight was exhibited | any statistically significant increase food intake was not observed | a tendency of increasing body weight was not exhibited | 
